From patent US20050261129A1, “Method of protecting plants from bacterial and fungal diseases” (priority 2003, published 2005)

Test system: tomato seedlings
Test: Tomato SAR trial, greenhouse foliar vigour (phytotoxicity) ratings (Example 9)
Conditions: 0, severe foliar injury; 10, foliage green in excellent health; each treatment followed by BONZI 5 ppm
Procedure: Tomatoes were seeded in a green house and the SAR compositions applied three separate times, first as a drench nine days after seeding, the second at the 2-leaf stage 15 days after seeding, and finally as a foliar application in the filed approximately two months from seeding. Each treatment was followed up by a 5 ppm application of a plant growth regulator comprising paclobutrazol available under the name BONZI from Syngenta, Greensboro, N.C. […] This procedure was replicated four times in a randomized complete block design. […] Phytotoxicity ratings were also taken in green house prior to transplanting.

Compound | Greenhouse Evaluations: Foliar Vigour Ratings (0-10)
COC(=O)[C@@]1(C)CC[C@]2(C(=O)O)CC[C@]3(C)C(=CCC4[C@@]5(C)CCC(O)[C@@](C)(CO)C5CC[C@]43C)C2C1 (stereo partly drawn) [Sapogenin 1, Phytolaccagenic acid] | 5.7
CC1(C)CC[C@]2(C(=O)O)CC[C@]3(C)C(=CC[C@@H]4[C@@]5(C)CC[C@H](O)[C@@](C)(CO)[C@@H]5CC[C@]43C)[C@@H]2C1 [Sapogenin 2, Hederagenin] | 5.3
CC1(C)CC[C@]2(C(=O)O)CC[C@]3(C)C(=CC[C@@H]4[C@@]5(C)CC[C@H](O)C(C)(C)[C@@H]5CC[C@]43C)[C@@H]2C1 [Sapogenin 3, Oleanolic acid] | 4.7
COC(=O)[C@@]1(C)CC[C@]2(C(=O)O)CC[C@]3(C)C(=CCC4[C@@]5(C)CCC(O)[C@@](C)(CO)C5CC[C@]43C)C2C1 (stereo partly drawn) [Sapogenin 4, Phytolaccagenic acid] | 4.3
CC1(C)CC[C@]2(C(=O)O)CC[C@]3(C)C(=CC[C@@H]4[C@@]5(C)CC[C@H](O)[C@@](C)(CO)[C@@H]5CC[C@]43C)[C@@H]2C1 [Sapogenin 5, Hederagenin] | 4.3
CC1(C)CC[C@]2(C(=O)O)CC[C@]3(C)C(=CC[C@@H]4[C@@]5(C)CC[C@H](O)C(C)(C)[C@@H]5CC[C@]43C)[C@@H]2C1 [Sapogenin 6, Oleanolic acid] | 4.3
